Results from patent publication US20100267561A1, “HERBICIDAL PYRIDAZINONE DERIVATIVES” (priority 2007, published 2010).

Columns and labels:
Format in all cases: in vivo
[1] = tested on: morningglory (Ipomoea coccinea); experiment: Test A pre-/postemergence plant response
How it was run: (§1)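 Ratings run 0–100 (100 = complete control), assigned visually against untreated controls roughly 10 days after treatment in a greenhouse. Compounds, formulated in non-phytotoxic solvent containing surfactant, were applied as a soil-directed preemergence spray and concurrently postemergence to one- to two-leaf plants 2–10 cm tall.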

[2] = tested on: barnyardgrass (Echinochloa crus-galli); experiment: Test A pre-/postemergence plant response
How it was run: as §1

[3] = tested on: pigweed (Amaranthus retroflexus); experiment: Test A pre-/postemergence plant response
How it was run: as §1

corn (Zea mays) = experiment: Test A pre-/postemergence plant response
How it was run: as §1

[4] = tested on: wheat (Triticum aestivum); experiment: Test A pre-/postemergence plant response
How it was run: as §1

[5] = tested on: pigweed (Amaranthus retroflexus); experiment: Test B pre-/postemergence plant response
How it was run: (§2)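 Visual scoring from 0 (no effect) to 100 (complete control) against untreated controls was done 13 to 15 days after greenhouse treatment. Chemicals were formulated in a surfactant-containing non-phytotoxic solvent and applied to soil preemergence or to 1- to 4-leaf (2-18 cm) plants postemergence.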

[6] = tested on: johnsongrass (Sorghum halepense); experiment: Test B pre-/postemergence plant response
How it was run: as §2

[7] = tested on: catchweed bedstraw (Galium aparine); experiment: Test B pre-/postemergence plant response; details: Preemergence, scale 0 to 100
How it was run: as §2

[8] = tested on: chickweed (Stellaria media); experiment: Test B postemergence plant response; details: Postemergence
How it was run: (§3)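 Visual injury score from 0 (none) to 100 (complete control) versus controls, taken 13 to 15 days after treatment in the greenhouse; chemicals applied postemergence, as formulated, to plants of 1- to 4-leaf stage (2 to 18 cm tall); dash denotes no test result.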

[9] = tested on: winter barley (Hordeum vulgare); experiment: Test B postemergence plant response; details: Postemergence, scale 0 to 100
How it was run: as §3

[10] = tested on: windgrass (Apera spica-venti); experiment: Test B postemergence plant response; details: Postemergence
How it was run: as §3

[11] = tested on: canarygrass (Phalaris minor); experiment: Test B postemergence plant response; details: Postemergence
How it was run: as §3

[12] = Postemergence, 125 g ai/ha, 0 to 100 scale, 0 no effect, 100 complete control
[13] = Postemergence, 500 g ai/ha, 0 to 100 scale, 0 no effect, 100 complete control
[14] = Preemergence, 125 g ai/ha, 0 to 100 scale (0 no effect, 100 complete control)
[15] = Preemergence, 500 g ai/ha, 0 to 100 scale (0 no effect, 100 complete control)
[16] = Postemergence, 125 g ai/ha, scale 0 to 100
[17] = Postemergence, 250 g ai/ha, scale 0 to 100
[18] = Preemergence, 31 g ai/ha, 0 to 100 scale, 0 no effect, 100 complete control
[19] = Preemergence, 62 g ai/ha, scale 0 to 100
[20] = Preemergence, 125 g ai/ha, scale 0 to 100
[21] = 31 g ai/ha, scale 0 to 100, 0 no effect, 100 complete control

5-[3-(4-chlorophenyl)-5-methyl-1H-pyrazol-1-yl]-1,6-dihydro-1-methyl-6-oxo-4-pyridazinyl-1-methylethyl carbonate [Compound 7]
Plant response rating, Morningglory [1, 12]: 0
Plant response rating, Morningglory [1, 13]: 20
Plant response rating, Morningglory [1, 14]: 20
Plant response rating, Morningglory [1, 15]: 20
Plant response rating, Barnyardgrass [2, 12]: 80
Plant response rating, Barnyardgrass [2, 13]: 100
Plant response rating, Barnyardgrass [2, 14]: 100
Plant response rating, Barnyardgrass [2, 15]: 100
Plant response rating, Pigweed [3, 12]: 0
Plant response rating, Pigweed [3, 13]: 0
Plant response rating, Pigweed [3, 14]: 0
Plant response rating, Pigweed [3, 15]: 0
Plant response rating, Corn (corn (Zea mays); [12]): 50
Plant response rating, Corn (corn (Zea mays); [13]): 100
Plant response rating, Corn (corn (Zea mays); [14]): 60
Plant response rating, Corn (corn (Zea mays); [15]): 90
Plant response rating, Wheat [4, 12]: 40
Plant response rating, Wheat [4, 13]: 60
Plant response rating, Wheat [4, 14]: 60
Plant response rating, Wheat [4, 15]: 80
Plant response rating, Pigweed ([5]; Postemergence, 31 g ai/ha, scale 0 to 100, 0 no effect, 100 complete control): 0
Plant response rating, Pigweed ([5]; Postemergence, 62 g ai/ha, scale 0 to 100): 0
Plant response rating, Pigweed [5, 16]: 0
Plant response rating, Pigweed [5, 17]: 20
Plant response rating, Pigweed [5, 18]: 85
Plant response rating, Pigweed [5, 19]: 100
Plant response rating, Pigweed [5, 20]: 100
Plant response rating, Johnsongrass [6, 16]: 0
Plant response rating, Johnsongrass [6, 17]: 0
Plant response rating, Johnsongrass [6, 18]: 75
Plant response rating, Johnsongrass [6, 19]: 98
Plant response rating, Johnsongrass [6, 20]: 100
Plant response rating, Johnsongrass ([6]; Preemergence, 250 g ai/ha, scale 0 to 100): 100
Plant response rating, Galium ([7]; 62 g ai/ha): 0
Plant response rating, Galium ([7]; 125 g ai/ha): 80
Plant response rating, Galium ([7]; 250 g ai/ha): 80
Plant response rating, Chickweed [8, 21]: 0
Plant response rating, Chickweed ([8]; 62 g ai/ha, scale 0 to 100): 0
Plant response rating, Chickweed ([8]; 125 g ai/ha, scale 0 to 100): 0
Plant response rating, Chickweed ([8]; 250 g ai/ha, scale 0 to 100): 0
Plant response rating, Barley ([9]; 62 g ai/ha): 0
Plant response rating, Barley ([9]; 125 g ai/ha): 0
Plant response rating, Barley ([9]; 250 g ai/ha): 0
Plant response rating, Windgrass [10, 21]: 80
Plant response rating, Windgrass ([10]; 62 g ai/ha, scale 0 to 100): 85
Plant response rating, Windgrass ([10]; 125 g ai/ha, scale 0 to 100): 100
Plant response rating, Windgrass ([10]; 250 g ai/ha, scale 0 to 100): 100
Plant response rating, Canarygrass [11, 21]: 90
Plant response rating, Canarygrass ([11]; 125 g ai/ha, scale 0 to 100): 90
Plant response rating, Canarygrass ([11]; 250 g ai/ha, scale 0 to 100): 90
